Tested on: Cyclin-dependent kinase
Assay: Cyclin-dependent kinase inhibition, % inhibition at 10 nM (library Examples 99-270)
Format: biochemical
Details: 10 nM compound
Method in brief: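 Radiometric filter assay: kinase transfers ³²P/³³P from 25 μM ATP to a protein substrate in pH 7.4 HEPES buffer with MgCl2, 2% DMSO, 30° C, 20 min. EDTA stop; substrate captured on nitrocellulose or phosphocellulose membrane, washed with phosphoric acid, counted by phosphorimager.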

Structure (SMILES) | % Inhib @ 10 nM [%]
CCNCc1cncc(-c2ccc3[nH]nc(-c4ncc(C(=O)N5CCC(Cc6ccc(C(N)=O)cc6)CC5)[nH]4)c3c2)c1C [Example 263, 4-[(1-{[2-(5-{5-[(ethylamino)methyl]-4-methylpyridin-3-yl}-1H-indazol-3-y)-1H-imidazol-5-yl]carbonyl}piperidin-4-yl)methyl]benzamide] | 69
CCNCc1cncc(-c2ccc3[nH]nc(-c4ncc(C(=O)N5CCc6c(C(=O)NC)csc6C5)[nH]4)c3c2)c1C [Example 259, 6-{[2-(5-{5-[(ethylamino)methyl]-4-methylpyridin-3-yl}-1H-indazol-3-yl)-1H-imidazol-5-yl]carbonyl}-N-methyl-4,5,6,7-tetrahydrothieno[2,3-c]pyridine-3-carboxamlde] | 69
CCNCc1cncc(-c2ccc3[nH]nc(-c4ncc(C(=O)N5CCC(Cc6ncccn6)CC5)[nH]4)c3c2)c1C [Example 260, ethyl({4-methyl-5-[3-(5-{[4-(pyrimidin-2-ylmethyl)piperidin-1-yl]carbonyl}-1H-imidazol-2-yl)-1H-indazol-5-yl]pyridin-3-yl}methyl)amine] | 33
CCNCc1cncc(-c2ccc3[nH]nc(-c4ncc(C(=O)N5CCCC(O)(Cn6cccn6)CC5)[nH]4)c3c2)c1C (stereo not shown) [Example 265, 1-{[2-(5-{5-[(ethylamino)methyl]-4-methylpyridin-3-yl}-1H-indazol-3-yl)-1H-imidazol-5-yl]carbonyl}-4-(1H-pyrazol-1-ylmethyl)azepan-4-ol] | 29
CCNCc1cncc(-c2ccc3[nH]nc(-c4ncc(C(=O)NCC(F)(F)F)[nH]4)c3c2)c1C [Example 136, 2-(5-{5-[(ethylamino)methyl]-4-methylpyridin-3-yl}-1H-indazol-3-yl)-N-(2,2,2-trifluoroethyl)-1H-imidazole-5-carboxamide] | 72
CCNCc1cncc(-c2ccc3[nH]nc(-c4ncc(C(=O)NCC(O)COc5ccccc5)[nH]4)c3c2)c1C (stereo not shown) [Example 249, 2-(5-{5-[(ethylamino)methyl]-4-methylpyridin-3-yl}-1H-indazol-3-yl)-N-(2-hydroxy-3-phenoxypropyl)-1H-imidazole-5-carboxamide] | 69
CCNCc1cncc(-c2ccc3[nH]nc(-c4ncc(C(=O)NCCC56CCCN5CCC6)[nH]4)c3c2)c1C [Example 216, 2-(5-{5-[(ethylamino)methyl]-4-methylpyridin-3-yl}-1H-indazol-3-yl)-N-[2-(tetrahydro-1H-pyrrolizin-7a(5H)-yl)ethyl]-1H-imidazole-5-carboxamide] | 13
CCNCc1cncc(-c2ccc3[nH]nc(-c4ncc(C(=O)N5CCN(CCCN6CCOCC6)CC5)[nH]4)c3c2)c1C [Example 180] | 22
CCNCc1cncc(-c2ccc3[nH]nc(-c4ncc(C(=O)N5CCN(CCOC)CC5)[nH]4)c3c2)c1C [Example 169, ethyl({5-[3-(5-{[4-(2-methoxyethyl)piperazin-1-yl]carbonyl}-1H-imidazol-2-yl)-1H-indazol-5-yl]-4-methylpyridin-3-yl}methyl)amine] | 37
CCNCc1cncc(-c2ccc3[nH]nc(-c4ncc(C(=O)N(CCC#N)CC5CCCO5)[nH]4)c3c2)c1C (stereo not shown) [Example 258] | 49
CCNCc1cncc(-c2ccc3[nH]nc(-c4ncc(C(=O)N5CCN(Cc6ccccn6)CC5)[nH]4)c3c2)c1C [Example 228, ethyl({4-methyl-5-[3-(5-{[4-(pyridin-2-ylmethyl)piperazin-1-yl]carbonyl)-1H-imidazol-2-yl)-1H-indazol-5-yl]pyridin-3-yl}methyl)amine] | 50
CCNCc1cncc(-c2ccc3[nH]nc(-c4ncc(C(=O)NCCc5cccc(OC)c5)[nH]4)c3c2)c1C [Example 114, 2-(5-{5-[(ethylamino)methyl]-4-methylpyridin-3-yl}-1H-indazol-3-yl)-N-[2-(3-methoxyphenyl)ethyl]-1H-imidazole-5-carboxamide] | 64
CCNCc1cncc(-c2ccc3[nH]nc(-c4ncc(C(=O)N5CCC(c6nnc(C7CC7)o6)CC5)[nH]4)c3c2)c1C [Example 256, ({5-[3-(5-[[4-(5-cyclopropyl-1,3,4-oxadiazol-2-yl)piperidin-1-yl]carbonyl}-1H-imidazol-2-yl)-1H-indazol-5-yl]-4-methylpyridin-3-yl}methyl)ethylamine] | 46
CCNCc1cncc(-c2ccc3[nH]nc(-c4ncc(C(=O)NCC(=O)OCc5ccccc5)[nH]4)c3c2)c1C [Example 200, benzyl N-{[2-(5-{5-[(ethylamino)methyl]-4-methylpyridin-3-yl}-1H-indazol-3-yl)-1H-imidazol-5-yl]carbonyl}glycinate] | 63
CCNCc1cncc(-c2ccc3[nH]nc(-c4ncc(C(=O)N5Cc6ccccc6C5)[nH]4)c3c2)c1C [Example 227, [(5-{3-[5-(1,3-dihydro-2H-isoindol-2-ylcarbonyl)-1H-imidazol-2-yl]-1H-indazol-5-yl}-4-methylpyridin-3-yl)methyl]ethylamine] | 84
CCNCc1cncc(-c2ccc3[nH]nc(-c4ncc(C(=O)NCC5CCNCC5)[nH]4)c3c2)c1C [Example 184] | 21

Structure (SMILES) | % Inhib @ 10 nM [%]
CCNCc1cncc(-c2ccc3[nH]nc(-c4ncc(C(=O)NC5CCCCC5)[nH]4)c3c2)c1C [Example 143, N-cyclohexyl-2-(5-{5-[(ethylamino)methyl]-4-methylpyridin-3-yl}-1H-indazol-3-yl)-1H-imidazole-5-carboxamide] | 78
CCNCc1cncc(-c2ccc3[nH]nc(-c4ncc(C(=O)N5CCN(CC(=O)N6CCCCC6)CC5)[nH]4)c3c2)c1C [Example 246, ethyl({4-methyl-5-[3-(5-{[4-(2-oxo-2-piperidin-1-ylethyl)piperazin-1-yl]carbonyl}-1H-imidazol-2-yl)-1H-indazol-5-yl]pyridin-3-yl}methyl)amine] | 26
CCNCc1cncc(-c2ccc3[nH]nc(-c4ncc(C(=O)N(C)CCS(C)(=O)=O)[nH]4)c3c2)c1C [Example 241] | 59
CCNCc1cncc(-c2ccc3[nH]nc(-c4ncc(C(=O)N[C@@H](CO)Cc5c[nH]c6ccccc56)[nH]4)c3c2)c1C [Example 185, 2-(5-{5-[(ethylamino)methyl]-4-methylpyridin-3-yl}-1H-indazol-3-yl)-N-[(1R)-2-hydroxy-1-(1H-indol-3-ylmethyl)ethyl]-1H-imidazole-5-carboxamide] | 52
CCNCc1cncc(-c2ccc3[nH]nc(-c4ncc(C(=O)N5CCC(C#N)(c6ccccc6)CC5)[nH]4)c3c2)c1C [Example 113, 1-{[2-(5-{5-[(ethylamino)methyl]-4-methylpyridin-3-yl}-1H-indazol-3-yl)-1H-imidazol-5-yl]carbonyl}-4-phenylpiperidine-4-carbonitrile] | 61
CCNCc1cncc(-c2ccc3[nH]nc(-c4ncc(C(=O)N5C[C@@H]6C[C@H]5CO6)[nH]4)c3c2)c1C [Example 186, ethyl{[4-methyl-5-(3-{5-[(1S,4S)-2-oxa-5-azabicyclo[2.2.1]hept-5-ylcarbonyl]-1H-imidazol-2-yl)-1H-indazol-5-yl)pyridin-3-yl]methyl}amine] | 61
CCNCc1cncc(-c2ccc3[nH]nc(-c4ncc(C(=O)N5CCC(NC(C)=O)C5)[nH]4)c3c2)c1C (stereo not shown) [Example 129] | 55
CCNCc1cncc(-c2ccc3[nH]nc(-c4ncc(C(=O)N5CCC(n6c(C)nc7cnccc76)CC5)[nH]4)c3c2)c1C [Example 247, ethyl({4-methyl-5-[3-(5-{[4-(2-methyl-1H-imidazol[4,5-c]pyridin-1-yl)piperidin-1-yl]carbonyl}-1H-imidazol-2-yl)-1H-indazol-5-yl]pyridin-3-yl}methyl)amine] | 26
CCNCc1cncc(-c2ccc3[nH]nc(-c4ncc(C(=O)NCC56CCCN5CCC6)[nH]4)c3c2)c1C [Example 219, 2-(5-{5-[(ethylamino)methyl]-4-methylpyridin-3-yl}-1H-indazol-3-yl)-N-(tetrahydro-1H-pyrrolizin-7a(5H)-ylmethyl)-1H-imidazole-5-carboxamide] | 20
CCCCN(CCC#N)C(=O)c1cnc(-c2n[nH]c3ccc(-c4cncc(CNCC)c4C)cc23)[nH]1 [Example 164, N-butyl-N-(2-cyanoethyl)-2-(5-{5-[(ethylamino)methyl]4-methylpyridin-3-yl}-1H-indazol-3-yl)-1H-imidaole-5-carboxamide] | 69
CCNCc1cncc(-c2ccc3[nH]nc(-c4ncc(C(=O)NCC(N)=O)[nH]4)c3c2)c1C [Example 109, N-(2-amino-2-oxoethyl)-2-(5-{5-[(ethylamino)methyl]-4-methylpyridin-3-yl}-1H-indazol-3-yl)-1H-imidazole-5-carboxamide] | 69
CCNCc1cncc(-c2ccc3[nH]nc(-c4ncc(C(=O)NC(C)CO)[nH]4)c3c2)c1C (stereo not shown) [Example 100] | 65
CCNCc1cncc(-c2ccc3[nH]nc(-c4ncc(C(=O)N(CCC#N)Cc5cccnc5)[nH]4)c3c2)c1C [Example 206, N-(2-cyanoethyl)-2-(5-{5-N(ethylamino)methyl8-4-methylpyridin-3-yl}-1H-indazol-3-yl)-N-(pyridin-3-ylmethyl)-1H-imidazole-5-carboxamide] | 71
CCNCc1cncc(-c2ccc3[nH]nc(-c4ncc(C(=O)NCCC5CCN(Cc6ccccc6)CC5)[nH]4)c3c2)c1C [Example 192, N-[2-(1-benzylpiperidin-4-yl)ethyl]-2-(5-{5-[(ethylamino)methyl]-4-methylpyridin-3-yl}-1H-indazol-3-yl)-1H-imidazole-5-carboxamide] | 30
CCNCc1cncc(-c2ccc3[nH]nc(-c4ncc(C(=O)NCC5CCCCC5)[nH]4)c3c2)c1C [Example 166, N-(cyclohexylmethyl)-2-(5-{5-[(ethylamino)methyl]-4-methylpyridin-3-yl}-1H-indazol-3-yl)-1H-imidazole-5-carboxamide] | 73
